From patent US5629304A, “Therapeutic agent for thrombocytopenia and indolocarbazole derivatives” (Kyowa Hakko Kogyo Co., Ltd., priority 1994, dated 1997)

What follows are compounds tested on platelets (assay: Platelet Production-Stimulating Activity in Mice). Settings: 20 mg/kg i.p. once a day, day 1 to 5; blood on day 15; vs solvent control.
Type: in vivo, BALB/c mice
Text: Platelet Production-Stimulating Activity in Mice
A test compound was intraperitoneally administered to four 7-week-old male BALB/c mice per group once a day for consecutive 5 days (day 1 to day 5). A control group (4 mice per group) received only the solvent (5% Tween 80/water). The blood was collected from the fundus oculi vein of each animal on the 15th day from the start of administration (day 15), and the number of the platelets was counted with a microcell counter (Model CC-180A, manufactured by Toa Iryo Denshi Co.). The rate of increase of the number of platelets in the test group (average) over the control (average) was calculated according to the following formula to evaluate the effect of the test compound.
A: the number of platelets in test group
B: the number of platelets in control group

In the case of `CN(C)CCCn1c2ccccc2c2c3c(c4c5ccccc5n(C)c4c21)C(=O)N(C)C3=O` [Compound 25], the “Rate of increase (number of platelets, A/B×100)” value (“Rate of increase” for short) is reported as 151%.

Same assay, conditions: 25 mg/kg i.p. once a day, day 1 to 5; blood on day 15; vs solvent control

For `CCN(CC)CCCn1c2ccc(O)cc2c2c3c(c4c5cc(O)ccc5n(C)c4c21)C(=O)N(C)C3=O` [Compound 108], the “Rate of increase” value was 179%.

Same assay, conditions: 40 mg/kg i.p. once a day, day 1 to 5; blood on day 15; vs solvent control

In order of falling “Rate of increase” value:
1. CCN(CC)CCCn1c2ccccc2c2c3c(c4c5ccccc5n(C)c4c21)C(=O)N(C)C3=O [Compound 27]  187%
2. CCN(CC)CCCn1c2ccc(Br)cc2c2c3c(c4c5cc(Br)ccc5n(C)c4c21)C(=O)N(C)C3=O [Compound 110]  184%
3. CCCN(C)CCCn1c2ccccc2c2c3c(c4c5ccccc5n(C)c4c21)C(=O)N(C)C3=O [Compound 31]  161%

These compounds were tested on megakaryocyte colony formation (bone marrow cells) (assay: Megakaryocyte colony formation-stimulating activity). Settings: 1 nM; control (IL-3 alone) defined as 100; IL-3 100 U/ml; 7 days.
Type: cell-based, BALB/c mouse
Method: Megakaryocyte colony formation-stimulating activity
An eight-weeks-old BALB/c mouse was killed. Its femurs and cervical vertebrae were taken out, and both end sections thereof were cut off. Bone marrow cells were collected from the pieces cut off from the femurs and cervical vertebrae using a syringe containing IMDM (430-2200EA prepared by Gibco Co.), and then blown into a test tube. The test tube was allowed to stand for 5 minutes, and the supernatant was collected with a pipet. To a reaction mixture comprising the bone marrow cells (50,000 cells), bovine serum albumin (2%: A4508 made by Sigma Co.), transferrin (600 μg/ml: 652202 made by Boehringer Mannheim Co.), IL-3 (100 U/ml), cholesterol (16 μg/ml: 036-0641 made by Wako Co.) and agar (0.6%: 0142-02 made by Difco Laboratories) were separately added the test compounds at various concentrations, and 1 ml each of the mixtures was put into a 35-mm dish (Lux Co.), followed by incubation under the conditions of 37° C., 5% CO2 and a humidity of 95% or more for 7 days. Separately, IL-3 alone was added to the bone marrow cells to prepare a control. After the incubation was completed, the agar was dried over a filter paper (1001-055 made by Whatman Co.) and then fixed with 2.5% glutaraldehyde, followed by acetylcholinesterase staining (ACHE staining).
The ACHE staining was carried out by the method described below.
ACHE staining: To each sample was added a solution comprising 0.67 mg/ml acetylthiocholine iodide, 2.94 mg/ml sodium citrate, 7.5 mg/ml copper (II) sulfate and 1.65 mg/ml potassium ferricyanide, and the mixture was allowed to stand at room temperature in the dark for 4-6 hours.
A group of 4 or more megakaryocytes which were stained reddish brown was regarded as a colony, and the number of colonies per dish was calculated using a microscope. The results are shown in Table 2 as relative values to the control.

In order of rising “Rel. Value (megakaryocyte colonies per dish relative to the control)” value:
1. C=CCn1c2ccccc2c2c3c(c4c5ccccc5n(CC=C)c4c21)C(=O)N(C)C3=O [Compound 82]  101
2. CN1C(=O)C(c2c[nH]c3ccccc23)=C(c2c[nH]c3ccccc23)C1=O [Compound 93]  109
3. O=C1c2c(c3c4ccccc4[nH]c3c3[nH]c4ccccc4c23)CN1C1CCCCO1 (stereo not drawn) [Compound 89]  110
4. CN1C(=O)c2c(c3c4ccccc4n(CC(O)CO)c3c3[nH]c4ccccc4c23)C1=O (stereo not drawn) [Compound 83]  111
5. CN1Cc2c(c3c4ccccc4[nH]c3c3[nH]c4ccccc4c23)C1=O [Compound 80]  111
6. Cn1c2ccccc2c2c3c(c4c5ccccc5n(C)c4c21)C(=O)NC3 [Compound 91]  111
7. CNCCCn1c2ccccc2c2c3c(c4c5ccccc5n(C)c4c21)C(=O)N(C)C3=O [Compound 26]  117
8. O=C1NCc2c1c1c3ccccc3[nH]c1c1c2c2ccccc2n1CCCN1CCOCC1 [Compound 88]  120
9. CCOC(=O)Cn1c2ccccc2c2c3c(c4c5ccccc5n(CC(=O)OCC)c4c21)C(=O)NC3 [Compound 85]  125
10. CN1Cc2c(c3c4ccccc4n(C)c3c3c2c2ccccc2n3C)C1=O [Compound 9]  128
11. O=C1NCc2c1c1c3ccccc3n(CCCO)c1c1c2c2ccccc2n1CCCO [Compound 86]  131
12. CCN(CC)CCCn1c2ccc(Br)cc2c2c3c(c4c5cc(Br)ccc5n(C)c4c21)C(=O)N(C)C3=O [Compound 110]  137
13. CN1Cc2c(c3c4ccccc4n(Cc4ccc(N(C)C)cc4)c3c3c2c2ccccc2n3Cc2ccc(N(C)C)cc2)C1=O [Compound 20]  140

Same assay, conditions: 10 nM; control (IL-3 alone) defined as 100; IL-3 100 U/ml; 7 days

In order of rising “Rel. Value (megakaryocyte colonies per dish relative to the control)” value:
1. O=C1NCc2c1c1c3ccccc3n(Cc3ccccc3)c1c1c2c2ccccc2n1Cc1ccccc1 [Compound 90]  106
2. C=CCn1c2ccccc2c2c3c(c4c5ccccc5[nH]c4c21)C(=O)N(C)C3=O [Compound 81]  113
3. CN1C(=O)c2c(c3c4ccccc4n(CC(O)CO)c3c3c2c2ccccc2n3CC(O)CO)C1=O (stereo not drawn) [Compound 84]  132
